Measured values from patent US8637525B2, “Compounds for the reduction of beta-amyloid production” (Bristol-Myers Squibb Company, priority 2009, dated 2014).
pIC50: −log10 of the molar value.

These molecules were tested on Aβ1-42 production (assay: Cellular assay for inhibition of Aβ1-42 production (H4 APP751 SWE clone 8.20)). Conditions: 19 h, H4 APP751 SWE clone 8.20 cells, 19 h incubation; class symbols; read-out: Activity Rating (Aβ42 cellular IC50).
Assay type: cell-based
Procedure, shortened: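 Secreted peptide was quantified with a two-antibody homogeneous format combining Wallac-labelled 565, which recognises the Aβ42 end, and APC-labelled 26D6 at 0.8 and 75 ng/well respectively. Antibodies were diluted in 40 mM Tris-HCl, pH 7.4, 0.2% BSA and left overnight at 4 °C after a 19 h compound incubation.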

pIC50 | SMILES
8.00 to 8.82 | CNc1nc(Nc2ccc(-n3cnc(Cl)c3)c(OC)c2)nc2c1COCC2c1ccc(OC(F)(F)F)cc1 (stereo not shown) [Example 122A, N2-(4-(4-chloro-1H-imidazol-1-yl)-3-methoxyphenyl)-N4-methyl-8-(4-(trifluoromethoxy)phenyl)-7,8-dihydro-5H-pyrano[4,3-d]pyrimidine-2,4-diamine]
7.00 to 8.00 | COc1cc(Nc2nc3c(c(N4CC[C@@H](F)C4)n2)COCC3c2ccc(OC(F)(F)F)cc2)ccc1-n1cnc(Cl)c1 (stereo partly shown) [Example 123A]
7.00 to 8.00 | COc1cc(Nc2ncc3c(n2)C(c2ccccc2)CCC3)ccc1-n1cnc(Cl)c1 (stereo not shown) [Example 125, N-(4-(4-chloro-1H-imidazol-1-yl)-3-methoxyphenyl)-8-phenyl-5,6,7,8-tetrahydroquinazolin-2-amine]
7.00 to 8.00 | CCN(C)c1nc(Nc2ccc(-n3cnc(Cl)c3)c(OC)c2)nc2c1CCCC2c1ccc(F)cc1 (stereo not shown) [Example 126, N^2-(4-(4-Chloro-1H-imidazol-1-yl)-3-methoxyphenyl)-N^4-ethyl-8-(4-fluorophenyl)-N^4-methyl-5,6,7,8-tetrahydroquinazoline-2,4-diamine]
6.00 to 7.00 | COc1cc(Nc2ncc3c(n2)C(c2ccc(F)cc2)CCC3)ccc1-n1cnc(Cl)c1 (stereo not shown) [Example 128, N-(4-(4-Chloro-1H-imidazol-1-yl)-3-methoxyphenyl)-8-(4-fluorophenyl)-5,6,7,8-tetrahydroquinazolin-2-amine]
8.00 to 8.82 | CNc1nc(Nc2ccc(-n3cnc(Cl)c3)c(OC)c2)nc2c1CN(S(C)(=O)=O)CC2c1ccccc1 (stereo not shown) [Example 129A, N2-(4-(4-chloro-1H-imidazol-1-yl)-3-methoxyphenyl)-N4-methyl-6-(methylsulfonyl)-8-phenyl-5,6,7,8-tetrahydropyrido[4,3-d]pyrimidine-2,4-diamine]
8.00 to 8.82 | CNc1nc(Nc2ccc(-n3cnc(Cl)c3)c(OC)c2)nc2c1CN(S(=O)(=O)C1CC1)CC2c1ccccc1 (stereo not shown) [Example 130, N2-(4-(4-chloro-1H-imidazol-1-yl)-3-methoxyphenyl)-6-(cyclopropylsulfonyl)-N4-methyl-8-phenyl-5,6,7,8-tetrahydropyrido[4,3-d]pyrimidine-2,4-diamine]
7.00 to 8.00 | CCNc1nc(Nc2ccc(-n3cnc(Cl)c3)c(OC)c2)nc2c1CN(C(=O)C1CC1)CC2c1ccccc1 (stereo not shown) [Example 132, (2-(4-(4-chloro-1H-imidazol-1-yl)-3-methoxyphenylamino)-4-(ethylamino)-8-phenyl-7,8-dihydropyrido[4,3-d]pyrimidin-6(5H)-yl)(cyclopropyl)methanone]
8.00 to 8.82 | CCNc1nc(Nc2ccc(-n3cnc(Cl)c3)c(OC)c2)nc2c1CN(S(C)(=O)=O)CC2c1ccccc1 (stereo not shown) [Example 134, N2-(4-(4-chloro-1H-imidazol-1-yl)-3-methoxyphenyl)-N4-ethyl-6-(methylsulfonyl)-8-phenyl-5,6,7,8-tetrahydropyrido[4,3-d]pyrimidine-2,4-diamine]
7.00 to 8.00 | CCNc1nc(Nc2ccc(-n3cnc(Cl)c3)c(OC)c2)nc2c1CN(C(=O)CN(C)C)CC2c1ccccc1 (stereo not shown) [Example 135, 1-(2-(4-(4-chloro-1H-imidazol-1-yl)-3-methoxyphenylamino)-4-(ethylamino)-8-phenyl-7,8-dihydropyrido[4,3-d]pyrimidin-6(5H)-yl)-2-(dimethylamino)ethanone]
8.00 to 8.82 | CCNc1nc(Nc2ccc(-n3cnc(Cl)c3)c(OC)c2)nc2c1CN(S(=O)(=O)C1CC1)CC2c1ccccc1 (stereo not shown) [Example 136, N2-(4-(4-chloro-1H-imidazol-1-yl)-3-methoxyphenyl)-6-(cyclopropylsulfonyl)-N4-ethyl-8-phenyl-5,6,7,8-tetrahydropyrido[4,3-d]pyrimidine-2,4-diamine]
8.00 to 8.82 | CCNc1nc(Nc2ccc(-n3cnc(Cl)c3)c(OC)c2)nc2c1CN(C(C)=O)CC2c1ccccc1 (stereo not shown) [Example 137A, 1-(2-(4-(4-chloro-1H-imidazol-1-yl)-3-methoxyphenylamino)-4-(ethylamino)-8-phenyl-7,8-dihydropyrido[4,3-d]pyrimidin-6(5H)-yl)ethanone]
7.00 to 8.00 | CCNc1nc(Nc2ccc(-n3cnc(C)n3)c(F)c2)nc2c1CN(S(C)(=O)=O)CC2c1ccccc1 (stereo not shown) [Example 139, N4-ethyl-N2-(3-fluoro-4-(3-methyl-1H-1,2,4-triazol-1-yl)phenyl)-6-(methylsulfonyl)-8-phenyl-5,6,7,8-tetrahydropyrido[4,3-d]pyrimidine-2,4-diamine]
7.00 to 8.00 | CNc1nc(Nc2ccc(-n3ncnc3C)c(F)c2)nc2c1CN(S(=O)(=O)C1CC1)CC2c1ccccc1 (stereo not shown) [Example 142, 6-(cyclopropylsulfonyl)-N2-(3-fluoro-4-(5-methyl-1H-1,2,4-triazol-1-yl)phenyl)-N4-methyl-8-phenyl-5,6,7,8-tetrahydropyrido[4,3-d]pyrimidine-2,4-diamine]

Same assay, conditions: 19 h, H4 APP751 SWE clone 8.20 cells, 19 h incubation; read-out: Activity Rating (Aβ42 cellular IC50), numeric value

pIC50 | SMILES
6.43 | COc1cc(Nc2nc3c(c(N4CC[C@@H](F)C4)n2)COCC3c2ccc(OC(F)(F)F)cc2)ccc1-n1cnc(Cl)c1 (stereo partly shown) [Example 123B]
7.82 | CCNc1nc(Nc2ccc(-n3cnc(Cl)c3)c(OC)c2)nc2c1CN(C(=O)C1CC1)CC2c1ccccc1 (stereo not shown) [Example 132A, (2-(4-(4-chloro-1H-imidazol-1-yl)-3-methoxyphenylamino)-4-(ethylamino)-8-phenyl-7,8-dihydropyrido[4,3-d]pyrimidin-6(5H)-yl)(cyclopropyl)methanone]
8.44 | CCNc1nc(Nc2ccc(-n3cnc(Cl)c3)c(OC)c2)nc2c1CN(S(C)(=O)=O)CC2c1ccccc1 (stereo not shown) [Example 134A, N2-(4-(4-chloro-1H-imidazol-1-yl)-3-methoxyphenyl)-N4-ethyl-6-(methylsulfonyl)-8-phenyl-5,6,7,8-tetrahydropyrido[4,3-d]pyrimidine-2,4-diamine]
7.96 | CCNc1nc(Nc2ccc(-n3cnc(Cl)c3)c(OC)c2)nc2c1CN(C(C)=O)CC2c1ccccc1 (stereo not shown) [Example 137, 1-(2-(4-(4-chloro-1H-imidazol-1-yl)-3-methoxyphenylamino)-4-(ethylamino)-8-phenyl-7,8-dihydropyrido[4,3-d]pyrimidin-6(5H)-yl)ethanone]

Same assay, conditions: H4 APP751 SWE clone 8.20 cells, 19 h incubation; class symbols; read-out: Activity Rating (Aβ42 cellular IC50)

pIC50 | SMILES
7.00 to 8.00 | CCNc1nc(Nc2ccc(-n3cnc(Cl)c3)c(OC)c2)nc2c1CN(C(=O)OC)CC2c1ccccc1 (stereo not shown) [Example 131, Methyl 2-(4-(4-chloro-1H-imidazol-1-yl)-3-methoxyphenylamino)-4-(ethylamino)-8-phenyl-7,8-dihydropyrido[4,3-d]pyrimidine-6(5H)-carboxylate]
8.00 to 8.82 | CCNc1nc(Nc2ccc(-n3cnc(Cl)c3)c(OC)c2)nc2c1CN(C(=O)OC)CC2c1ccccc1 (stereo not shown) [Example 131A, Methyl 2-(4-(4-chloro-1H-imidazol-1-yl)-3-methoxyphenylamino)-4-(ethylamino)-8-phenyl-7,8-dihydropyrido[4,3-d]pyrimidine-6(5H)-carboxylate]
7.00 to 8.00 | CCNc1nc(Nc2ccc(-n3cnc(Cl)c3)c(OC)c2)nc2c1CN(C(=O)COC)CC2c1ccccc1 (stereo not shown) [Example 133, 1-(2-(4-(4-chloro-1H-imidazol-1-yl)-3-methoxyphenylamino)-4-(ethylamino)-8-phenyl-7,8-dihydropyrido[4,3-d]pyrimidin-6(5H)-yl)-2-methoxyethanone]
8.00 to 8.82 | CCNc1nc(Nc2ccc(-n3cnc(Cl)c3)c(OC)c2)nc2c1CN(C(=O)COC)CC2c1ccccc1 (stereo not shown) [Example 133A, 1-(2-(4-(4-chloro-1H-imidazol-1-yl)-3-methoxyphenylamino)-4-(ethylamino)-8-phenyl-7,8-dihydropyrido[4,3-d]pyrimidin-6(5H)-yl)-2-methoxyethanone]
7.00 to 8.00 | CCNc1nc(Nc2ccc(-n3cnc(Cl)c3)c(OC)c2)nc2c1CN(S(=O)(=O)CC)CC2c1ccccc1 (stereo not shown) [Example 138, N2-(4-(4-chloro-1H-imidazol-1-yl)-3-methoxyphenyl)-N4-ethyl-6-(ethylsulfonyl)-8-phenyl-5,6,7,8-tetrahydropyrido[4,3-d]pyrimidine-2,4-diamine]
8.00 to 8.82 | CCNc1nc(Nc2ccc(-n3cnc(Cl)c3)c(OC)c2)nc2c1CN(S(=O)(=O)CC)CC2c1ccccc1 (stereo not shown) [Example 138A, N2-(4-(4-chloro-1H-imidazol-1-yl)-3-methoxyphenyl)-N4-ethyl-6-(ethylsulfonyl)-8-phenyl-5,6,7,8-tetrahydropyrido[4,3-d]pyrimidine-2,4-diamine]
7.00 to 8.00 | CCNc1nc(Nc2ccc(-n3ncnc3C)c(F)c2)nc2c1CN(S(C)(=O)=O)CC2c1ccccc1 (stereo not shown) [Example 140, N4-ethyl-N2-(3-fluoro-4-(5-methyl-1H-1,2,4-triazol-1-yl)phenyl)-6-(methylsulfonyl)-8-phenyl-5,6,7,8-tetrahydropyrido[4,3-d]pyrimidine-2,4-diamine]
8.00 to 8.82 | CCNc1nc(Nc2ccc(-n3ncnc3C)c(F)c2)nc2c1CN(S(C)(=O)=O)CC2c1ccccc1 (stereo not shown) [Example 140A, N4-ethyl-N2-(3-fluoro-4-(5-methyl-1H-1,2,4-triazol-1-yl)phenyl)-6-(methylsulfonyl)-8-phenyl-5,6,7,8-tetrahydropyrido[4,3-d]pyrimidine-2,4-diamine]
7.00 to 8.00 | CNc1nc(Nc2ccc(-n3cnc(C)n3)c(F)c2)nc2c1CN(S(=O)(=O)C1CC1)CC2c1ccccc1 (stereo not shown) [Example 141, 6-(cyclopropylsulfonyl)-N2-(3-fluoro-4-(3-methyl-1H-1,2,4-triazol-1-yl)phenyl)-N4-methyl-8-phenyl-5,6,7,8-tetrahydropyrido[4,3-d]pyrimidine-2,4-diamine]
8.00 to 8.82 | CNc1nc(Nc2ccc(-n3cnc(C)n3)c(F)c2)nc2c1CN(S(=O)(=O)C1CC1)CC2c1ccccc1 (stereo not shown) [Example 141A, 6-(cyclopropylsulfonyl)-N2-(3-fluoro-4-(3-methyl-1H-1,2,4-triazol-1-yl)phenyl)-N4-methyl-8-phenyl-5,6,7,8-tetrahydropyrido[4,3-d]pyrimidine-2,4-diamine]
